Assay results as given in PubChem BioAssay (NCI).
Values joined by “and” are separate entries in the source; they are usually repeats but may differ in a detail not shown here. Identical values can stand only once.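 Results reflect a 48-hour exposure of cells in 96-well plates to compound at five concentrations. GI50: concentration for 50% inhibition of growth. TGI: concentration producing complete growth inhibition.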

Experiments:
Experiment in all cases: NCI-60 cell line screen, 48 h
SK-MEL-5 melanoma = tested on: SK-MEL-5 melanoma
SN12C renal = tested on: SN12C renal
HT29 colon = tested on: HT29 colon
SNB-19 CNS = tested on: SNB-19 CNS
LOX IMVI melanoma = tested on: LOX IMVI melanoma
NCI-H226 lung = tested on: NCI-H226 lung
SW-620 colon = tested on: SW-620 colon
SF-295 CNS = tested on: SF-295 CNS
M14 melanoma = tested on: M14 melanoma
K-562 leukemia = tested on: K-562 leukemia

Row | Compound | GI50 (SK-MEL-5 melanoma) [µM] | TGI (SK-MEL-5 melanoma) [µM] | GI50 (SN12C renal) [µM] | TGI (SN12C renal) [µM] | GI50 (HT29 colon) [µM] | TGI (HT29 colon) [µM] | GI50 (SNB-19 CNS) | TGI (SNB-19 CNS) | GI50 (LOX IMVI melanoma) [µM] | TGI (LOX IMVI melanoma) [µM] | GI50 (NCI-H226 lung) | TGI (NCI-H226 lung) | GI50 (SW-620 colon) [µM] | TGI (SW-620 colon) [µM] | GI50 (SF-295 CNS) [µM] | TGI (SF-295 CNS) | GI50 (M14 melanoma) [µM] | TGI (M14 melanoma) [µM] | GI50 (K-562 leukemia) [µM] | TGI (K-562 leukemia) [µM]
1 | C[C@H](NC(=O)c1c(C(F)F)nn(C)c1Oc1cccc(C(F)(F)F)c1)c1ccc(C(=O)O)cc1 | > 100 | > 100 | > 100 | > 100 | > 100 | > 100 | > 100 µM | > 100 µM | > 100 | > 100 | > 100 µM | > 100 µM | > 100 | > 100 | > 100 | > 100 µM | > 100 | > 100 |  | 
2 | Cn1cncc1-c1c(F)cncc1NC(=O)c1c(N)nn2cc(F)cnc12 | 1.23 | 2.48 | 3.98 | 37.6 | 3.61 | > 100 | 5.2 µM | > 100 µM | 0.238 | 10.4 |  |  | 4.12 | > 100 | 0.625 | 6.61 µM | 0.231 | 91.4 | 0.389 | > 100
3 | CCn1c(CSc2nc(-c3ccccc3)c(-c3ccccc3)[nH]2)n[nH]c1=S |  | > 100 |  | > 100 |  | > 100 |  | > 100 µM |  | > 100 |  | > 100 µM |  |  |  | > 100 µM |  | > 100 |  | 
4 | O=C(/C(=N/Nc1ccccc1)c1ccc([N+](=O)[O-])cc1)c1ccc([N+](=O)[O-])cc1 |  | > 100 |  | > 100 |  | > 100 |  | > 100 µM |  |  |  |  |  | > 100 |  | > 100 µM |  | > 100 |  | > 100
5 | N#C/C(=C\c1ccccc1)C(NO)Nc1ccccc1 (configuration not stated) |  | > 100 |  | > 100 |  | > 100 |  | > 100 µM |  |  |  | > 100 µM |  | > 100 |  | > 100 µM |  | > 100 |  | > 100
6 | c1cc[c]([Sn]([O]c2cccc3cccnc23)([O]c2cccc3cccnc23)[c]2ccccc2)cc1 | 0.245 | 0.593 | 0.481 | 1.64 |  |  |  |  | 0.198 | 0.424 |  |  |  |  | 1.72 | 3.22 µM | 0.198 | 0.4 | 0.221 | 0.631
7 | O=C([CH-]C(=O)c1ccccc1)c1ccccc1.O=C([CH-]C(=O)c1ccccc1)c1ccccc1.O=C([CH-]C(=O)c1ccccc1)c1ccccc1.[Cl-].[Zr+4] | 22.9 | 60.6 | 35.9 | > 100 | 29 | > 100 |  |  | 26.7 | > 100 |  |  | 33.8 | > 100 | 12.8 | > 100 µM | 12.6 | 39 | 8.02 | 25.5
8 | O=C(NC(=O)c1cn(CCN2CCN(C(=O)NCCCCCCNC(=O)N3CCN(CCn4cc(C(=O)NC(=O)OCc5ccccc5)c(=O)[nH]c4=O)CC3)CC2)c(=O)[nH]c1=O)OCc1ccccc1 |  | > 100 |  | > 100 |  | > 100 |  | > 100 µM |  | > 100 |  |  |  | > 100 |  | > 100 µM |  | > 100 |  | > 100
9 | O=C(/C=C\n1cnc(-c2cc(C(F)(F)F)cc(C(F)(F)F)c2)n1)N1CC(F)(F)C1 | 0.644 | 4.08 | 1.19 | > 25 | 0.919 | 11.5 | 0.273 µM | > 25 µM | 0.357 | 3.45 |  |  | 0.318 | 12.9 | 0.336 | > 17 µM | 1.36 | 6.57 | 0.43 | > 25
10 | O=C(CN(/C=C/C(=O)C(F)(F)F)c1ccccc1)c1ccc(Cl)cc1 | 16.4 | 31.6 | 16 | 29.9 | 34.5 | > 100 | 22 µM | 51.5 µM | 16 | 32.6 | 18.1 µM | 33.1 µM | 22.1 | 45.8 | 18.8 | 48.2 µM |  |  | 20.9 | 53.2
11 | CN(C)CCCCCNc1c2ccccc2nc2cccc([N+](=O)[O-])c12 | 0.00693 | 0.00335 |  |  | 0.00502 | 0.00839 |  | > 0.0231 µM and 0.0317 µM |  | 0.0113 |  | 0.057 µM | 0.00632 | 0.0126 | 0.0097 |  |  | 0.00312 | 0.00212 | > 0.0945
12 | CCc1nc2cc(/C=C/C(=O)NO)ccc2c(=O)n1CCc1ccc(OC)cc1 | 1.96 | 5.09 |  |  | 2.31 | 49.5 | 3.21 µM | 21.4 µM | 1.68 | 3.19 | 2.87 µM | 17.3 µM | 1.93 | 13 | 2.16 | 5.39 µM | 2.88 | 10.4 | 3.07 | > 100
13 | CC1(C)C(=O)C(=Cc2ccco2)C1=O |  | > 100 |  | > 100 |  | > 100 |  |  |  | > 100 |  | > 100 µM |  | > 100 |  | > 100 µM |  | > 100 |  | > 100
14 | Clc1ccc(OCc2nnc3n2N=C(c2ccccc2)CS3)c(Cl)c1 |  | > 100 |  |  |  | > 100 |  | > 100 µM |  | 5.87 |  | > 100 µM |  | > 100 |  | 86.6 µM |  |  |  | > 100
15 | COc1cc2nc(-c3cccc4cccnc34)nc(NC3CCN(Cc4ccccc4)CC3)c2cc1OC | 1.66 | 3.18 | 1.11 | 2.58 | 0.419 | 1.85 | 1.34 µM | 3.16 µM |  |  |  |  | 0.509 | 2.01 | 1.44 | 3.09 µM | 1.52 | 3.4 |  | 
16 | CC12OC(C(=O)C13CCC3)C1C(=O)c3ccc4c(ccc5ccccc54)c3C(=O)C12 (configuration not stated) |  |  | 2.72 | 19.6 | 3.85 | 19.2 | 21.5 µM | 65.7 µM |  |  |  |  |  |  |  | 0.0612 µM | 14.5 | 45.4 | 3.27 | 16
17 | COC(=O)CC(=O)NCC1=CCC(=O)CC1 |  | > 100 |  | > 100 |  | > 100 |  | > 100 µM |  | > 100 |  |  |  | > 100 |  | > 100 µM |  | > 100 |  | > 100
18 | COC(=O)CC(C(C(C)=O)C(=O)OCc1ccccc1)N1C(=O)OC(c2ccccc2)C1c1ccccc1 (configuration not stated) |  | > 100 |  | > 100 |  | > 100 | 10.5 µM and > 100 µM | 91.7 µM and > 100 µM |  | > 100 | 12.2 µM and 77.5 µM | 80.7 µM and > 100 µM |  | > 100 |  | 75.4 µM and > 100 µM |  |  |  | > 100
